This is an account of results in ChEMBL document CHEMBL3507680, “University of Dundee, Gates Library screen for HepG2 cell viability”.

This data set in a line: Human HepG2 cell viability assay in 384 well format. It counts as toxicity, cell-based. Also on record: dose 125 nL, time 70.5 hour; concentration not given beside the values. The note with it: HepG2 cells, read-out: Inhibition.
`COc1ccc(C[C@H]2CN(c3cc(OC)ncn3)CC[C@@H]2OC)cc1`: the cytotoxicity at 70.5 h came out at 4.78%.

Turning to `CC(C)NC(=O)N1CCCn2cnc(CN3CCCC3=O)c2C1`, the cytotoxicity at 70.5 h stood at 27.9%. With `Fc1cnc(N2CCCC3(CCN(Cc4cccs4)C3)C2)nc1` (centres undefined) the figure was -2.04%; with `COC1COC2(CCN(Cc3ccc4ccccc4n3)CC2)C1` (centres undefined), -12.9%. The same measure for `CCCn1ccnc1CN1CCCC1c1ccccn1` (centres undefined): -4.45%. For `COc1cccc2c(=O)n(Cc3cccnc3)cnc12`, the cytotoxicity at 70.5 h is -6.26%. The same measure for `O=C(c1cc(F)ccc1Br)N1CCN(C(=O)C2CC2)CC1`: 17.3%.

For `CS(=O)(=O)N1CCCC12CCCN(S(=O)(=O)c1cccc(F)c1)C2` (centres undefined), the cytotoxicity at 70.5 h is 2.16%. With `Cc1ccc(C(=O)NCC2(O)CCOCC2)cc1Br` the figure was -7.13%.

For the compound `O=C(C1CCCOC1)N1CCCCc2ccccc21` (centres undefined), the cytotoxicity at 70.5 h was -12.1%.

With `O[C@H]1CN(Cc2c[nH]nc2-c2ccccc2)CC[C@@]12CCCO2`, the cytotoxicity at 70.5 h was 15.7%.

`O=C(c1ccnn1-c1ccc2ccccn12)N1CCCC1`: the cytotoxicity at 70.5 h is -10.6%. In the case of `Cn1cc(CCNC(=O)N2CCCC(Cc3nccn3C)C2)cn1` (centres undefined), the cytotoxicity at 70.5 h was -0.841%.

As for `CN(Cc1ccc(Cl)s1)C(=O)COc1cccc(C(N)=O)c1`, the cytotoxicity at 70.5 h was -26.8%. With `Clc1ccc2cccnc2c1CN1CCCC1Cn1cncn1` (centres undefined), the cytotoxicity at 70.5 h was -17.7%.

Consider `c1ncn(Cc2cnc3n2CCN(Cc2ccsc2)CC3)n1`, for which the cytotoxicity at 70.5 h is 1.42%. The same measure for `CCC(C)NC(=O)Cn1ccc2sc(C)cc2c1=O` (centres undefined): -0.388%; for `O=C(NCc1ccco1)[C@@H]1CCO[C@@H]2CCN(C3CCOCC3)C[C@H]21`: 4.93%. The same measure for `Cc1n[nH]c(NC(=O)c2ccc(COCC(F)(F)F)cc2)c1C`: -10.3%.

Turning to `Cc1nc(C)c(C(=O)N2CCc3c(Cl)cccc32)o1`, the cytotoxicity at 70.5 h was 1.38%. Regarding `CC(=O)NCc1nnc2n1CCN(Cc1cccs1)C2`, the cytotoxicity at 70.5 h is -11.7%. With `CCCN(C(=O)c1cnns1)C1CCCN(Cc2ccccc2)C1` (centres undefined) the figure was -7.29%. Take `CC(=O)NCc1nccnc1C1CCN(C(=O)c2cc[nH]n2)CC1`: the cytotoxicity at 70.5 h was -6.68%. The same measure for `COc1ccccc1CC(=O)NC(CC(=O)O)c1ccc(F)cc1` (centres undefined): -8.41%. On to `CCCC(=O)N1CCOC2(COCCN(CC(=O)NC)C2)C1` (centres undefined), for which the cytotoxicity at 70.5 h was -10.5%. With `COCCC(C)NC(=O)c1cc(Br)c2c(c1)OCCO2` (centres undefined) the figure was -10.3%; with `CCc1csc(C2CCCN(C(=O)C3=NN(CC)C(=O)CC3)C2)n1` (centres undefined), 3.39%. With `O=C(NC1CC1)[C@H]1[C@@H]2CN(Cc3ccc(-c4ccn[nH]4)s3)C[C@@H]21` the figure was 0.292%; with `CCN1CCCCC1C(=O)Nc1cccc(-c2nnc[nH]2)c1` (centres undefined), -0.846%; with `OCC1(O)CCN(Cc2ccc(-c3cc[nH]n3)s2)CC1`, 6.86%. With `O=C1CC(c2ccncc2)C2(CCN(C(=O)NC3CC3)CC2)N1` (centres undefined) the figure was -1.57%; with `Cc1cc(C)n(-c2cncc(NCCNC(=O)C(C)C)n2)n1`, -3.05%; with `Cc1nc(C)n(CC2CN(Cc3nccs3)Cc3nccn3C2)n1` (centres undefined), -2.68%.

As to `Cc1cccc(C(=O)N2CCSCC2)c1NC(=O)c1ccsc1`, the cytotoxicity at 70.5 h is -8.36%. Consider `CCc1nc(CN(C)CC(N)=O)cs1`, for which the cytotoxicity at 70.5 h was -4.25%. As for `COc1ccc(C(C)NC(=O)C2CCN(S(C)(=O)=O)CC2)cc1C` (centres undefined), the cytotoxicity at 70.5 h was -4.77%. The same measure for `CC1CCCN(Cc2ccc(C(N)=O)cc2)C1` (centres undefined): 0.459%; for `CS(=O)(=O)N1CC2(CCCN2Cc2ccc(Cl)cc2)Cc2ccccc21` (centres undefined): 7.7%. In the case of `Cc1ccnc(NCCNC(=O)C2CC3(CCNCC3)CN2C)c1` (centres undefined), the cytotoxicity at 70.5 h is -3.92%. `Cn1cc(C[C@H]2[C@H](O)CCN2C(=O)c2ccsc2)cn1`: the cytotoxicity at 70.5 h is -4.72%. With `COCC(=O)N1CCN(c2cc(C)nc(C3CCCN3C(C)=O)c2)CC1` (centres undefined), the cytotoxicity at 70.5 h was -0.659%. Take `COc1cc(N2CC[C@@H](OC)[C@@H]2Cc2ccccc2)ncn1`: the cytotoxicity at 70.5 h is -1.02%.

Turning to `COCCCN(C)C1CCCN(Cc2noc(C)n2)C1` (centres undefined), the cytotoxicity at 70.5 h turned out to be 6.68%.

As to `CNC(=O)CCNC(=O)Nc1cccc(Cl)c1SC(F)F`, the cytotoxicity at 70.5 h worked out at 0.534%. With `CCN(C(=O)CN1CCCC1c1cc(C)no1)c1ccccc1C` (centres undefined) the figure was -6.07%; with `Cc1nc(C2CCCN2CC(=O)Nc2c(C)nn(C)c2C)no1` (centres undefined), -3.49%. The same measure for `CS(=O)(=O)NC(=O)c1ccn(-c2cccc(Br)c2)n1`: -3.84%; for `CCN(CC)S(=O)(=O)N1C[C@@H]2CC[C@H](C1)N(Cc1cscn1)C2=O`: -9.09%; for `Cc1cccnc1CCNC(=O)[C@@]12CNC[C@@H]1CN(S(C)(=O)=O)C2`: -1.74%. With `Cc1ccc(N2CCC3(CCN(Cc4csc(C)n4)CC3)CC2)nn1` the figure was -6.42%; with `OCCN(Cc1cccnc1)c1ncc(Br)cn1`, -2%.

With `COc1ccc(CN2C[C@@H]3OCCN(CC4CCCO4)[C@@H]3C2)cc1` (some centres undefined), the cytotoxicity at 70.5 h was -19.1%. The same measure for `O=C(CCNS(=O)(=O)c1cccnc1)N1CCOC(c2ccccc2)C1` (centres undefined): -13.3%. The same measure for `CC(=O)N1CCN(C(=O)C(C)OCC(F)(F)F)CC1` (centres undefined): 33.2%. The same measure for `O=C(c1ccoc1)N1CCCC2(CCC(=O)N2Cc2ccncc2)C1` (centres undefined): -1.87%; for `COc1ccccc1CCNC(=O)C1CCC(Cn2cnnn2)CC1` (centres undefined): -18.1%; for `CC(=O)N1CCOC2(CCCN(Cc3ccc(N(C)C)cc3)C2)C1` (centres undefined): -2.02%. In the case of `CCn1cnnc1C1CCCN(C(=O)COc2ccc(Cl)cc2)C1` (centres undefined), the cytotoxicity at 70.5 h was -5.18%. The same measure for `O=C(NCC1CC1)[C@H]1C[C@@H]2CN(S(=O)(=O)Cc3ccccc3)C[C@H]1O2`: 18.9%; for `COc1cc(NCCCSc2nnc(C)s2)ncn1`: 12%; for `CC(C)n1ccnc1CN1CCCN(C(=O)CC2CCCO2)CC1` (centres undefined): 23.9%. `Cc1nnsc1CN1CC[C@@](O)(C2CCC2)[C@H](C)C1`: the cytotoxicity at 70.5 h was -7.08%. With `O=C(NCCN1CCCC1)c1cc2c(s1)CCN2c1ncccn1` the figure was -5.02%. Regarding `CC(C)SCC(=O)N1CCCn2nc(C(=O)Nc3ccccc3)cc2C1`, the cytotoxicity at 70.5 h was 6.99%. The same measure for `O=C(Nc1ccc(-n2cncn2)nc1)N(CC1CCOC1)C1CC1` (centres undefined): -1.97%. With `CCn1nccc1CNC(=O)C1CCCC1` the figure was -6.56%; with `COCCC(=O)N1CCc2cc(Cl)cc(Cl)c2C1`, -2.57%; with `Cc1ccc(CC(NC(=O)Cn2cnnn2)c2ccccn2)cc1` (centres undefined), -1.31%.

As to `CC(C)n1nc(CNc2ncccn2)c2c1CN(S(C)(=O)=O)CC2`, the cytotoxicity at 70.5 h was 10.7%. The same measure for `CCCOC1CCCN(C(=O)c2cc(CN(CC)CC)c(CC)o2)C1` (centres undefined): 17.7%; for `CCN(CC)CC1CN(Cc2nccs2)Cc2nccn2C1` (centres undefined): -9.42%; for `CN(C)C(=O)c1cccc(CCNc2ccccc2S(C)(=O)=O)c1`: -0.957%. Consider `NC(=O)COc1ccc(CNCc2ccc(Cl)c(F)c2)cc1`, for which the cytotoxicity at 70.5 h is -0.573%. The same measure for `Cc1nc(CN2CCC3(CCN(Cc4cnn(C)c4)C3)C2=O)cs1` (centres undefined): -13.8%; for `CN(C)S(=O)(=O)NC1CC(=O)N(c2ccccc2Cl)C1` (centres undefined): -17.3%. With `CN(C)C1CCCN(C(=O)c2cccc(-c3ncc[nH]3)c2)CC1` (centres undefined) the figure was -1.63%; with `CCn1cnnc1CCNC(=O)C(C)(C)c1cccc(Cl)c1`, -7.37%.

Turning to `CCCc1noc(CN2CCC(C(=O)Nc3cnn(CC)c3)CC2)n1`, the cytotoxicity at 70.5 h was -14.6%. The same measure for `CN(Cc1ccncc1)C(=O)NCc1nnc2n1CCCCC2`: 22.9%. The same measure for `CC(NCc1nnc2n1CCCC2)c1nc(Cc2ccccc2)no1` (centres undefined): -8.89%. The same measure for `CC(C)c1nc(CCN(C)C(=O)C2COc3ccccc3C2)no1` (centres undefined): -3.01%.

In the case of `COc1ccc(CNC(=O)NC2CCC(O)CC2)c(C(F)(F)F)c1` (centres undefined), the cytotoxicity at 70.5 h was -4.62%. The same measure for `Cc1cc(CC(=O)NC2CCCN(c3ccccc3Cl)C2=O)n[nH]1` (centres undefined): -19%; for `O=C(N1CCOCC1)N1CC[C@H]2[C@@H]1CCC(=O)N2c1ccccc1`: -1.24%; for `CC(C)c1nc(-c2cc(C(=O)O)c3ccccn23)cs1`: 10.6%. As for `O=S(=O)(N[C@H]1CC[C@H]1NC1Cc2ccccc2C1)c1cccnc1`, the cytotoxicity at 70.5 h was -6.2%. With `CC1(C)CNC(=O)CN(C(=O)CCc2ccccc2)C1` the figure was -3.7%. For the compound `N#Cc1ccc(F)c(CN2CCCC2Cn2cnc3ccccc32)c1` (centres undefined), the cytotoxicity at 70.5 h came out at 7.39%.

Consider `CC(=O)Nc1nc(C(=O)N2CCCC(c3cc(C)[nH]n3)C2)cs1` (centres undefined), for which the cytotoxicity at 70.5 h was -0.899%. For `CN(C)C(=O)[C@H]1C[C@@H]2CCN(Cc3ccncc3)C[C@H]2O1`, the cytotoxicity at 70.5 h is -7.62%.

In the case of `O=C(c1ccc(Cn2cnnn2)cc1)N1CC[C@H](CO)[C@H](O)C1`, the cytotoxicity at 70.5 h is -8.21%. Regarding `CSc1ccc(C(=O)N2CCCC(Nc3ccc(F)cc3)C2)cc1` (centres undefined), the cytotoxicity at 70.5 h is -0.171%. With `CN(Cc1ccc(F)cc1F)CC(C)(CO)CO` the figure was -5.77%; with `O=C1NCCCc2c1oc1ccc(O)c(CN3CCOCC3)c21`, 30.3%; with `O=C(c1cnccn1)N1C[C@@H]2CC[C@H](C1)N(C(=O)CCc1ccsc1)C2`, -0.591%. The same measure for `CC(C)c1nc2n(n1)CC(NCc1nc(-c3ccsc3)no1)CC2` (centres undefined): -11.5%; for `O=C(COCc1ccccc1Cl)N1CCN(c2ncccn2)CC1`: 6.02%; for `CCN1CCN(C(=O)c2ccc(Cn3ccccc3=O)o2)CC1`: -9.18%.

Turning to `C[C@@H]1CN(C2CCCCC2)CC[C@@]1(O)C1CCOCC1`, the cytotoxicity at 70.5 h was -16%.
